We go through nine compounds from patent US5306808A, “Peptide derivatives having vasodilating activity” (Takeda Chemical Industries, Ltd., priority 1991, dated 1994).

Where a SMILES comes first, the peptide text is derived from it. Bridges are numbered along the chain shown (N, C = ends). [ ]: non-standard residue; d: D form. Nva = CCC[C@H](N)C(=O)O Where only a bound is given, the exact number is not on record here.

One test has as its system porcine coronary artery. Type of test: cell-based. To be noted: for Constrictor activity (Relative potency): ET-1 = 100; for Maximum Constriction (% 60 mM KCl): normalized to constriction response to 60 mM KCl. The method, then: Each of helical strips 2 mm×15 mm prepared from the coronary right ramus circumflexus from which the adventitial connective tissues and the endothelial cells were removed was set to each of 4 ml organ baths. Its tension was detected by a force displacement transducer UL-10GR (Minebea), and recorded by a polygraph (NEC Sanei). The organ baths were maintained at 37° C., and filled with a Krebs-Henseleit solution (composition:118 mM NaCl, 4.7 mM KCl, 2.5 mM CaCl2, 1.2 mM KH2 PO4, 25.0 mM NaHCO3, 1.2 mM MgSO4, 10.0 mM glucose) gassed with 95% O2 and 5% CO2.
A tension of 1.25 to 1.5 g was applied to each of the strips, followed by equilibration for 1.5 hours. 60 mM KCl was repeatedly applied thereto at intervals of 30 minutes until the constriction response became constant. After additional equilibration for 1.5 hours, a sample for assay was given. The constriction of the strips was normalized by the constriction response of the individual strips to 60 mM KCl and statistically processed.
(2) As to the antagonist property or the agonist property of the peptide derivatives of present invention to endothelin, the affinity for an endothelin receptor and the constrictor activity to porcine coronary smooth muscles (according to the method described in (1) described above) were assayed. The affinity for the receptor was assayed by the following method.

A further test relates to endothelin receptor. Put plainly: Assay of affinity for receptor (I125-ET-1 binding to porcine myocardial membrane fraction). To be noted: ET-1 = 100. On the procedure: A membrane fraction prepared from the porcine heart was diluted to 0.15 mg/ml by using a buffer solution [PBS (pH 7.4) containing 0.5 mM CaCl2, 1.0 mM MgCl2, 0.02% NaN3, 0.1% BSA (fraction V, Sigma), 0.1 mM PMSF and 0.1 μg/ml pepstatin (binding buffer)] for assay, and 100 μl of the resulting suspension of the membrane fraction was poured into each assay tube to use for assay. To this suspension of the membrane fraction were added 2 μl of an endothelin-1 solution labeled with 5 μM radioactive iodine. Further, 3 μl of a test peptide solution was added thereto, followed by maintenance at a temperature of 25° C. for 1 hour. Then, the resulting suspension was diluted with 900 μl of the buffer solution for assay cooled with ice, and thereafter separated into a supernatant and a precipitate by centrifugation at 12,000×g for 10 minutes. Cell membranes and an endothelin receptor embedded therein were contained in the precipitate, and radioactive iodine-labeled endothelin combined with the receptor was also recovered in the precipitate. Accordingly, the amount of radioactive iodine-labeled endothelin combined with the endothelin receptor was determined by measuring the amount of radioactive iodine contained in the precipitate with a gamma-ray counter. Compounds in which the affinity for the endothelin receptor is high and the maximum constriction is not high are antagonists. Contrary to this, compounds in which the affinity for the endothelin receptor is high and the maximum constriction is high are agonists.

Take `CC[C@H](C)[C@H](NC(=O)[C@H](CCC(=O)O)NC(=O)[C@H](CC(C)C)NC(=O)[C@H](Cc1c[nH]cn1)NC(=O)[C@@H]1CSSC[C@H](N)C(=O)N[C@@H](CO)C(=O)N[C@H]2CSSC[C@H](NC(=O)[C@H](CCC(=O)O)NC(=O)[C@H](CCCCN)NC(=O)[C@H](CC(=O)O)NC(=O)[C@H](CCSC)NC(=O)[C@H](CC(C)C)NC(=O)[C@H](CO)NC(=O)[C@H](CO)NC2=O)C(=O)N[C@@H](C(C)C)C(=O)N[C@@H](Cc2ccc(O)cc2)C(=O)N[C@@H](Cc2ccccc2)C(=O)N1)C(=O)N[C@H](C(=O)N[C@@H](Cc1c[nH]c2ccccc12)C(=O)O)[C@@H](C)CC` [Example 46, [Glu^18]-ET-1] (H-CSCSSLMDKECVYFCHLEIIW-OH; disulfide 1-15, 3-11): in the test on porcine coronary artery, the “Constrictor activity (Relative potency)” value is less than 0.1 and the “Maximum Constriction (% 60 mM KCl)” value is 6 % 60 mM KCl. Besides, the “Receptor binding activity (Relative potency)” value in the test on endothelin receptor stood at 3.2.
For the compound `CC[C@H](C)[C@H](NC(=O)[C@H](CC(=O)O)NC(=O)[C@H](CC(C)C)NC(=O)[C@H](Cc1c[nH]cn1)NC(=O)[C@@H]1CSSC[C@H](N)C(=O)N[C@@H](CO)C(=O)N[C@@H](C(C)C)C(=O)N[C@@H](CO)C(=O)N[C@@H](CO)C(=O)N[C@@H](CC(C)C)C(=O)N[C@@H](CCSC)C(=O)N[C@@H](CC(=O)O)C(=O)N[C@@H](CCCCN)C(=O)N[C@@H](CCC(=O)O)C(=O)N[C@@H](C(C)C)C(=O)N[C@@H](C(C)C)C(=O)N[C@@H](Cc2ccc(O)cc2)C(=O)N[C@@H](Cc2ccccc2)C(=O)N1)C(=O)N[C@H](C(=O)N[C@@H](Cc1c[nH]c2ccccc12)C(=O)O)[C@@H](C)CC` [Example 39, [Val^3,11]-ET-1] (H-CSVSSLMDKEVVYFCHLDIIW-OH; disulfide 1-15), in the test on porcine coronary artery, the “Constrictor activity (Relative potency)” value is less than 0.1 and the “Maximum Constriction (% 60 mM KCl)” value was determined as 34 % 60 mM KCl. In addition, the “Receptor binding activity (Relative potency)” value in the test on endothelin receptor was found to be 0.59.
As for `CC[C@H](C)[C@H](NC(=O)[C@@H](NC(=O)[C@H](CC(C)C)NC(=O)[C@H](Cc1c[nH]cn1)NC(=O)[C@@H]1CSSC[C@H](N)C(=O)N[C@@H](CO)C(=O)N[C@H]2CSSC[C@H](NC(=O)[C@H](CCC(=O)O)NC(=O)[C@H](CCCCN)NC(=O)[C@H](CC(=O)O)NC(=O)[C@H](CCSC)NC(=O)[C@H](CC(C)C)NC(=O)[C@H](CO)NC(=O)[C@H](CO)NC2=O)C(=O)N[C@@H](C(C)C)C(=O)N[C@@H](Cc2ccc(O)cc2)C(=O)N[C@@H](Cc2ccccc2)C(=O)N1)C(C)C)C(=O)N[C@H](C(=O)N[C@@H](Cc1c[nH]c2ccccc12)C(=O)O)[C@@H](C)CC` [Example 27, [Val^18]-ET-1] (H-CSCSSLMDKECVYFCHLVIIW-OH; disulfide 1-15, 3-11), in the test on porcine coronary artery, the “Constrictor activity (Relative potency)” value is less than 0.1 and the “Maximum Constriction (% 60 mM KCl)” value was 2 % 60 mM KCl. The “Receptor binding activity (Relative potency)” value with endothelin receptor is recorded as 3.2.
For the compound `CC[C@H](C)[C@H](NC(=O)[C@@H](NC(=O)[C@H](CC(C)C)NC(=O)[C@H](Cc1c[nH]cn1)NC(=O)[C@@H]1CSSC[C@H](N)C(=O)N[C@@H](CO)C(=O)N[C@H]2CSSC[C@H](NC(=O)[C@H](CCC(=O)O)NC(=O)[C@H](CCCCN)NC(=O)[C@H](CC(=O)O)NC(=O)[C@H](CCSC)NC(=O)[C@H](CC(C)C)NC(=O)[C@H](CO)NC(=O)[C@H](CO)NC2=O)C(=O)N[C@@H](C(C)C)C(=O)N[C@@H](Cc2ccc(O)cc2)C(=O)N[C@@H](Cc2ccccc2)C(=O)N1)[C@@H](C)O)C(=O)N[C@H](C(=O)N[C@@H](Cc1c[nH]c2ccccc12)C(=O)O)[C@@H](C)CC` [Example 51, [Thr^18]-ET-1] (H-CSCSSLMDKECVYFCHLTIIW-OH; disulfide 1-15, 3-11), in the test on porcine coronary artery, the “Constrictor activity (Relative potency)” value turned out to be 26 and the “Maximum Constriction (% 60 mM KCl)” value is on record as 76 % 60 mM KCl. The “Receptor binding activity (Relative potency)” value in the test on endothelin receptor came to 100.
As for `CC[C@H](C)[C@H](NC(=O)[C@H](CC(=O)O)NC(=O)[C@H](CC(C)C)NC(=O)[C@H](Cc1c[nH]cn1)NC(=O)[C@@H]1CSSC[C@H](N)C(=O)N[C@@H](CO)C(=O)N[C@@H](Cc2c[nH]c3ccccc23)C(=O)N[C@@H](CO)C(=O)N[C@@H](CO)C(=O)N[C@@H](CC(C)C)C(=O)N[C@@H](CCSC)C(=O)N[C@@H](CC(=O)O)C(=O)N[C@@H](CCCCN)C(=O)N[C@@H](CCC(=O)O)C(=O)N[C@@H](C)C(=O)N[C@@H](C(C)C)C(=O)N[C@@H](Cc2ccc(O)cc2)C(=O)N[C@@H](Cc2ccccc2)C(=O)N1)C(=O)N[C@H](C(=O)N[C@@H](Cc1c[nH]c2ccccc12)C(=O)O)[C@@H](C)CC` [Example 13, [Trp^3, Ala^11]-ET-1] (H-CSWSSLMDKEAVYFCHLDIIW-OH; disulfide 1-15), in the test with porcine coronary artery, the “Constrictor activity (Relative potency)” value is recorded as less than 0.1 and the “Maximum Constriction (% 60 mM KCl)” value is listed as 6 % 60 mM KCl. For the same compound, the “Receptor binding activity (Relative potency)” value in the test with endothelin receptor was 2.5.
Consider `CC[C@H](C)[C@H](NC(=O)[C@H](Cc1ccccc1)NC(=O)[C@H](CC(C)C)NC(=O)[C@H](Cc1c[nH]cn1)NC(=O)[C@@H]1CSSC[C@H](N)C(=O)N[C@@H](CO)C(=O)N[C@@H](C)C(=O)N[C@@H](CO)C(=O)N[C@@H](CO)C(=O)N[C@@H](CC(C)C)C(=O)N[C@@H](CCSC)C(=O)N[C@@H](CC(=O)O)C(=O)N[C@@H](CCCCN)C(=O)N[C@@H](CCC(=O)O)C(=O)N[C@@H](C)C(=O)N[C@@H](C(C)C)C(=O)N[C@@H](Cc2ccc(O)cc2)C(=O)N[C@@H](Cc2ccccc2)C(=O)N1)C(=O)N[C@H](C(=O)N[C@@H](Cc1c[nH]c2ccccc12)C(=O)O)[C@@H](C)CC` [Example 23, [Ala^3,11, Phe^18]-ET-1] (H-CSASSLMDKEAVYFCHLFIIW-OH; disulfide 1-15), for which, in the test on porcine coronary artery, the “Constrictor activity (Relative potency)” value is given as less than 0.1 and the “Maximum Constriction (% 60 mM KCl)” value worked out at 8 % 60 mM KCl. For the same compound, in the test on endothelin receptor, the “Receptor binding activity (Relative potency)” value was found to be 1.27.
With `CCC[C@H](NC(=O)[C@H](CC(C)C)NC(=O)[C@H](Cc1c[nH]cn1)NC(=O)[C@@H]1CSSC[C@H](N)C(=O)N[C@@H](CO)C(=O)N[C@H]2CSSC[C@H](NC(=O)[C@H](CCC(=O)O)NC(=O)[C@H](CCCCN)NC(=O)[C@H](CC(=O)O)NC(=O)[C@H](CCSC)NC(=O)[C@H](CC(C)C)NC(=O)[C@H](CO)NC(=O)[C@H](CO)NC2=O)C(=O)N[C@@H](C(C)C)C(=O)N[C@@H](Cc2ccc(O)cc2)C(=O)N[C@@H](Cc2ccccc2)C(=O)N1)C(=O)N[C@H](C(=O)N[C@H](C(=O)N[C@@H](Cc1c[nH]c2ccccc12)C(=O)O)[C@@H](C)CC)[C@@H](C)CC` [Example 31, [Nva^18]-ET-1] (H-CSCSSLMDKECVYFCHL[Nva]IIW-OH; disulfide 1-15, 3-11), in the test on porcine coronary artery, the “Constrictor activity (Relative potency)” value was less than 0.1 and the “Maximum Constriction (% 60 mM KCl)” value is listed as 2 % 60 mM KCl. Besides, the “Receptor binding activity (Relative potency)” value in the test with endothelin receptor came out at 2.4.
Regarding `CC[C@H](C)[C@H](NC(=O)[C@H](CO)NC(=O)[C@H](CC(C)C)NC(=O)[C@H](Cc1c[nH]cn1)NC(=O)[C@@H]1CSSC[C@H](N)C(=O)N[C@@H](CO)C(=O)N[C@H]2CSSC[C@H](NC(=O)[C@H](CCC(=O)O)NC(=O)[C@H](CCCCN)NC(=O)[C@H](CC(=O)O)NC(=O)[C@H](CCSC)NC(=O)[C@H](CC(C)C)NC(=O)[C@H](CO)NC(=O)[C@H](CO)NC2=O)C(=O)N[C@@H](C(C)C)C(=O)N[C@@H](Cc2ccc(O)cc2)C(=O)N[C@@H](Cc2ccccc2)C(=O)N1)C(=O)N[C@H](C(=O)N[C@@H](Cc1c[nH]c2ccccc12)C(=O)O)[C@@H](C)CC` [Example 34, [Ser^18]-ET-1] (H-CSCSSLMDKECVYFCHLSIIW-OH; disulfide 1-15, 3-11), in the test on porcine coronary artery, the “Constrictor activity (Relative potency)” value was determined as 18 and the “Maximum Constriction (% 60 mM KCl)” value is listed as 79 % 60 mM KCl. In addition, the “Receptor binding activity (Relative potency)” value with endothelin receptor worked out at 20.9.
As to `CC[C@H](C)[C@H](NC(=O)[C@H](CC(C)C)NC(=O)[C@H](CC(C)C)NC(=O)[C@H](Cc1c[nH]cn1)NC(=O)[C@@H]1CSSC[C@H](N)C(=O)N[C@@H](CO)C(=O)N[C@H]2CSSC[C@H](NC(=O)[C@H](CCC(=O)O)NC(=O)[C@H](CCCCN)NC(=O)[C@H](CC(=O)O)NC(=O)[C@H](CCSC)NC(=O)[C@H](CC(C)C)NC(=O)[C@H](CO)NC(=O)[C@H](CO)NC2=O)C(=O)N[C@@H](C(C)C)C(=O)N[C@@H](Cc2ccc(O)cc2)C(=O)N[C@@H](Cc2ccccc2)C(=O)N1)C(=O)N[C@H](C(=O)N[C@@H](Cc1c[nH]c2ccccc12)C(=O)O)[C@@H](C)CC` [Example 26, [Leu^18]-ET-1] (H-CSCSSLMDKECVYFCHLLIIW-OH; disulfide 1-15, 3-11), in the test on porcine coronary artery, the “Constrictor activity (Relative potency)” value was less than 0.1 and the “Maximum Constriction (% 60 mM KCl)” value is reported as 0 % 60 mM KCl. Moreover, in the test with endothelin receptor, the “Receptor binding activity (Relative potency)” value stood at 2.4.
